According to patent EP0908457B1, “3-(1,2-benzisothiazol- and isoxazol-5-Y1)-2,4(1H,3H)-pyrimidinedione or thione and 3-(1,2-benzisothiazol- and isoxazol-5-y1)-4(3H)-pyrimidinone or thione herbicidal agents” (BASF AKTIENGESELLSCHAFT, priority 1997, dated 1999):

Legend:
Cyperus iria [1] = assay: Preemergence weed control under flooded paddy conditions, CYPIR (Rice Flatsedge); assay type: in vivo; conditions: preemergence, flooded paddy, rated three to four weeks after treatment; note: meaning of each grade not given here
[2] = tested on: Oryza sativa, (L.) Tebonnet; assay: Rice tolerance to post-transplant applications under flooded paddy conditions (Example 187), ORYSAT (Rice, Tebonnet); conditions: rated three to four weeks after treatment; note: meaning of each grade not given here
Cyperus iria [3] = assay: Postemergence weed control under flooded paddy conditions, CYPIR (Rice Flatsedge); assay type: in vivo; conditions: rated three to four weeks after treatment
[4] = tested on: Cyperus serotinus, Rottb.; assay: Postemergence weed control under flooded paddy conditions, CYPSE (Flatsedge); assay type: in vivo; conditions: rated three to four weeks after treatment
[5] = tested on: Monochoria vaginalis, Presl.; assay: Postemergence weed control under flooded paddy conditions, MOOVA (Monochoria); assay type: in vivo; conditions: rated three to four weeks after treatment
[6] = tested on: Cyperus serotinus, Rottb.; assay: Preemergence weed control under flooded paddy conditions, CYPSE (Flatsedge); assay type: in vivo; conditions: preemergence, rated three to four weeks after treatment; note: meaning of each grade not given here
Sagittaria pygmaea, L. [7] = assay: Postemergence weed control under flooded paddy conditions, SAGPY (Arrowhead (Pygmaea)); assay type: in vivo; conditions: rated three to four weeks after treatment
[8] = tested on: Monochoria vaginalis, Presl.; assay: Preemergence weed control under flooded paddy conditions, MOOVA (Monochoria); assay type: in vivo; conditions: preemergence, flooded paddy, rated three to four weeks after treatment; note: meaning of each grade not given here
Sagittaria pygmaea, L. [9] = assay: Preemergence weed control under flooded paddy conditions, SAGPY (Arrowhead (Pygmaea)); assay type: in vivo; conditions: preemergence, flooded paddy, rated three to four weeks after treatment; note: meaning of each grade not given here
[10] = tested on: Echinochloa oryzoides (Ard.) Fritsch.; assay: Postemergence weed control under flooded paddy conditions, ECHORC (Watergrass (Calif.)); assay type: in vivo; conditions: rated three to four weeks after treatment
[11] = tested on: Echinochloa oryzoides (Ard.) Fritsch.; assay: Preemergence weed control under flooded paddy conditions, ECHORC (Watergrass (Calif.)); assay type: in vivo; conditions: preemergence, flooded paddy, rated three to four weeks after treatment; note: meaning of each grade not given here
[12] = tested on: Oryza sativa, (L.) Tebonnet; assay: Rice tolerance to post-transplant applications under flooded paddy conditions (Example 188), ORYSAT (Rice, Tebonnet); conditions: rated three to four weeks after treatment

COCc1nsc2cc(F)c(-n3c(=O)cc(C(F)(F)F)n(C)c3=O)cc12 [Example 378, 2,4(1H,3H)-Pyrimidinedione, 3-[6-fluoro-3-(methoxymethyl)-1,2-benzisothiazol-5-yl]-1-methyl-6-(trifluoromethyl)-]
9.0: herbicidal effect rating, CYPIR (Cyperus iria [1]; Rate 0.0320 kg/ha) | herbicidal effect rating, CYPIR (Cyperus iria [1]; Rate 0.0620 kg/ha) | herbicidal effect rating, CYPIR (Cyperus iria [1]; Rate 0.1250 kg/ha) | herbicidal effect rating, CYPIR (Cyperus iria [1]; Rate 0.2500 kg/ha) | herbicidal effect rating ORYSAT ([2]; Rate 0.0320 kg/ha) | herbicidal effect rating ORYSAT ([2]; Rate 0.0620 kg/ha) | herbicidal effect rating ORYSAT ([2]; Rate 0.1250 kg/ha) | herbicidal effect rating ORYSAT ([2]; Rate 0.2500 kg/ha) | herbicidal effect rating, CYPIR (Cyperus iria [3]; Rate 0.0320 kg/ha) | herbicidal effect rating, CYPIR (Cyperus iria [3]; Rate 0.0620 kg/ha) | herbicidal effect rating, CYPIR (Cyperus iria [3]; Rate 0.1250 kg/ha) | herbicidal effect rating, CYPSE ([4]; Rate 0.0320 kg/ha) | herbicidal effect rating, CYPSE ([4]; Rate 0.0620 kg/ha) | herbicidal effect rating, CYPSE ([4]; Rate 0.1250 kg/ha) | herbicidal effect rating, MOOVA ([5]; Rate 0.0320 kg/ha) | herbicidal effect rating, MOOVA ([5]; Rate 0.0620 kg/ha) | herbicidal effect rating, MOOVA ([5]; Rate 0.1250 kg/ha) | herbicidal effect rating, CYPSE ([6]; Rate 0.0320 kg/ha) | herbicidal effect rating, CYPSE ([6]; Rate 0.0620 kg/ha) | herbicidal effect rating, CYPSE ([6]; Rate 0.1250 kg/ha) | herbicidal effect rating, CYPSE ([6]; Rate 0.2500 kg/ha) | herbicidal effect rating, SAGPY (Sagittaria pygmaea, L. [7]; Rate 0.0320 kg/ha) | herbicidal effect rating, SAGPY (Sagittaria pygmaea, L. [7]; Rate 0.0620 kg/ha) | herbicidal effect rating, SAGPY (Sagittaria pygmaea, L. [7]; Rate 0.1250 kg/ha) | herbicidal effect rating, MOOVA ([8]; Rate 0.0320 kg/ha) | herbicidal effect rating, MOOVA ([8]; Rate 0.0620 kg/ha) | herbicidal effect rating, MOOVA ([8]; Rate 0.1250 kg/ha) | herbicidal effect rating, MOOVA ([8]; Rate 0.2500 kg/ha) | herbicidal effect rating, SAGPY (Sagittaria pygmaea, L. [9]; Rate 0.0320 kg/ha) | herbicidal effect rating, SAGPY (Sagittaria pygmaea, L. [9]; Rate 0.0620 kg/ha) | herbicidal effect rating, SAGPY (Sagittaria pygmaea, L. [9]; Rate 0.1250 kg/ha) | herbicidal effect rating, SAGPY (Sagittaria pygmaea, L. [9]; Rate 0.2500 kg/ha) | herbicidal effect rating, ECHORC ([10]; Rate 0.0320 kg/ha) | herbicidal effect rating, ECHORC ([10]; Rate 0.0620 kg/ha) | herbicidal effect rating, ECHORC ([10]; Rate 0.1250 kg/ha) | herbicidal effect rating, ECHORC ([11]; Rate 0.0320 kg/ha) | herbicidal effect rating, ECHORC ([11]; Rate 0.0620 kg/ha) | herbicidal effect rating, ECHORC ([11]; Rate 0.1250 kg/ha) | herbicidal effect rating, ECHORC ([11]; Rate 0.2500 kg/ha) | herbicidal effect rating, ORYSAT (rice tolerance) ([12]; Rate 0.1250 kg/ha)
8.0: herbicidal effect rating, ORYSAT (rice tolerance) ([12]; Rate 0.0320 kg/ha) | herbicidal effect rating, ORYSAT (rice tolerance) ([12]; Rate 0.0620 kg/ha)

COc1cc2c(cc1-c1nsc3ccc(-n4c(=O)cc(C(F)(F)F)n(C)c4=O)cc13)CCC2 [Example 380, 2,4(1H,3H)-Pyrimidinedione, 3-[3-(6-methoxy-5-indanyl)-1,2-benzisothiazol-5-yl]-1-methyl-6-(trifluoromethyl)-]
3.0: herbicidal effect rating, ORYSAT (rice tolerance) ([12]; Rate 0.0320 kg/ha)
9.0: herbicidal effect rating, CYPIR (Cyperus iria [1]; Rate 0.0320 kg/ha) | herbicidal effect rating, CYPIR (Cyperus iria [1]; Rate 0.0620 kg/ha) | herbicidal effect rating, CYPIR (Cyperus iria [1]; Rate 0.1250 kg/ha) | herbicidal effect rating, CYPIR (Cyperus iria [1]; Rate 0.2500 kg/ha) | herbicidal effect rating, CYPIR (Cyperus iria [3]; Rate 0.0320 kg/ha) | herbicidal effect rating, CYPIR (Cyperus iria [3]; Rate 0.0620 kg/ha) | herbicidal effect rating, CYPIR (Cyperus iria [3]; Rate 0.1250 kg/ha) | herbicidal effect rating, CYPIR (Cyperus iria [3]; Rate 0.2500 kg/ha) | herbicidal effect rating, MOOVA ([5]; Rate 0.0320 kg/ha) | herbicidal effect rating, MOOVA ([5]; Rate 0.0620 kg/ha) | herbicidal effect rating, MOOVA ([5]; Rate 0.1250 kg/ha) | herbicidal effect rating, MOOVA ([5]; Rate 0.2500 kg/ha) | herbicidal effect rating, MOOVA ([8]; Rate 0.0320 kg/ha) | herbicidal effect rating, MOOVA ([8]; Rate 0.0620 kg/ha) | herbicidal effect rating, MOOVA ([8]; Rate 0.1250 kg/ha) | herbicidal effect rating, MOOVA ([8]; Rate 0.2500 kg/ha) | herbicidal effect rating, SAGPY (Sagittaria pygmaea, L. [9]; Rate 0.2500 kg/ha) | herbicidal effect rating, ECHORC ([10]; Rate 0.1250 kg/ha) | herbicidal effect rating, ECHORC ([10]; Rate 0.2500 kg/ha) | herbicidal effect rating, ECHORC ([11]; Rate 0.0320 kg/ha) | herbicidal effect rating, ECHORC ([11]; Rate 0.0620 kg/ha) | herbicidal effect rating, ECHORC ([11]; Rate 0.1250 kg/ha) | herbicidal effect rating, ECHORC ([11]; Rate 0.2500 kg/ha)
2.5: herbicidal effect rating ORYSAT ([2]; Rate 0.0320 kg/ha)
7.0: herbicidal effect rating, ECHORC ([10]; Rate 0.0320 kg/ha) | herbicidal effect rating, ORYSAT (rice tolerance) ([12]; Rate 0.0620 kg/ha) | herbicidal effect rating, ORYSAT (rice tolerance) ([12]; Rate 0.1250 kg/ha) | herbicidal effect rating, ORYSAT (rice tolerance) ([12]; Rate 0.2500 kg/ha)
5.0: herbicidal effect rating ORYSAT ([2]; Rate 0.1250 kg/ha)
2.0: herbicidal effect rating, CYPSE ([4]; Rate 0.0620 kg/ha) | herbicidal effect rating, CYPSE ([4]; Rate 0.1250 kg/ha) | herbicidal effect rating, SAGPY (Sagittaria pygmaea, L. [7]; Rate 0.1250 kg/ha)
8.0: herbicidal effect rating, CYPSE ([4]; Rate 0.2500 kg/ha) | herbicidal effect rating, CYPSE ([6]; Rate 0.1250 kg/ha) | herbicidal effect rating, CYPSE ([6]; Rate 0.2500 kg/ha) | herbicidal effect rating, SAGPY (Sagittaria pygmaea, L. [7]; Rate 0.2500 kg/ha) | herbicidal effect rating, ECHORC ([10]; Rate 0.0620 kg/ha)
0.0: herbicidal effect rating, CYPSE ([4]; Rate 0.0320 kg/ha) | herbicidal effect rating, SAGPY (Sagittaria pygmaea, L. [7]; Rate 0.0320 kg/ha) | herbicidal effect rating, SAGPY (Sagittaria pygmaea, L. [7]; Rate 0.0620 kg/ha) | herbicidal effect rating, SAGPY (Sagittaria pygmaea, L. [9]; Rate 0.0320 kg/ha) | herbicidal effect rating, SAGPY (Sagittaria pygmaea, L. [9]; Rate 0.0620 kg/ha)
3.5: herbicidal effect rating, CYPSE ([6]; Rate 0.0320 kg/ha) | herbicidal effect rating, CYPSE ([6]; Rate 0.0620 kg/ha)
6.5: herbicidal effect rating ORYSAT ([2]; Rate 0.2500 kg/ha)
4.0: herbicidal effect rating ORYSAT ([2]; Rate 0.0620 kg/ha) | herbicidal effect rating, SAGPY (Sagittaria pygmaea, L. [9]; Rate 0.1250 kg/ha)
